Measured values as given in ChEMBL document CHEMBL3808391, “Evolution of a New Class of VEGFR-2 Inhibitors from Scaffold Morphing and Redesign” (ACS Med Chem Lett, 2016).

Target: Vascular endothelial growth factor receptor 2 (Homo sapiens, UniProt P35968)
Assay: Inhibition of KDR (unknown origin)

Vascular endothelial growth factor receptor 2, sequence (P35968 whole entry): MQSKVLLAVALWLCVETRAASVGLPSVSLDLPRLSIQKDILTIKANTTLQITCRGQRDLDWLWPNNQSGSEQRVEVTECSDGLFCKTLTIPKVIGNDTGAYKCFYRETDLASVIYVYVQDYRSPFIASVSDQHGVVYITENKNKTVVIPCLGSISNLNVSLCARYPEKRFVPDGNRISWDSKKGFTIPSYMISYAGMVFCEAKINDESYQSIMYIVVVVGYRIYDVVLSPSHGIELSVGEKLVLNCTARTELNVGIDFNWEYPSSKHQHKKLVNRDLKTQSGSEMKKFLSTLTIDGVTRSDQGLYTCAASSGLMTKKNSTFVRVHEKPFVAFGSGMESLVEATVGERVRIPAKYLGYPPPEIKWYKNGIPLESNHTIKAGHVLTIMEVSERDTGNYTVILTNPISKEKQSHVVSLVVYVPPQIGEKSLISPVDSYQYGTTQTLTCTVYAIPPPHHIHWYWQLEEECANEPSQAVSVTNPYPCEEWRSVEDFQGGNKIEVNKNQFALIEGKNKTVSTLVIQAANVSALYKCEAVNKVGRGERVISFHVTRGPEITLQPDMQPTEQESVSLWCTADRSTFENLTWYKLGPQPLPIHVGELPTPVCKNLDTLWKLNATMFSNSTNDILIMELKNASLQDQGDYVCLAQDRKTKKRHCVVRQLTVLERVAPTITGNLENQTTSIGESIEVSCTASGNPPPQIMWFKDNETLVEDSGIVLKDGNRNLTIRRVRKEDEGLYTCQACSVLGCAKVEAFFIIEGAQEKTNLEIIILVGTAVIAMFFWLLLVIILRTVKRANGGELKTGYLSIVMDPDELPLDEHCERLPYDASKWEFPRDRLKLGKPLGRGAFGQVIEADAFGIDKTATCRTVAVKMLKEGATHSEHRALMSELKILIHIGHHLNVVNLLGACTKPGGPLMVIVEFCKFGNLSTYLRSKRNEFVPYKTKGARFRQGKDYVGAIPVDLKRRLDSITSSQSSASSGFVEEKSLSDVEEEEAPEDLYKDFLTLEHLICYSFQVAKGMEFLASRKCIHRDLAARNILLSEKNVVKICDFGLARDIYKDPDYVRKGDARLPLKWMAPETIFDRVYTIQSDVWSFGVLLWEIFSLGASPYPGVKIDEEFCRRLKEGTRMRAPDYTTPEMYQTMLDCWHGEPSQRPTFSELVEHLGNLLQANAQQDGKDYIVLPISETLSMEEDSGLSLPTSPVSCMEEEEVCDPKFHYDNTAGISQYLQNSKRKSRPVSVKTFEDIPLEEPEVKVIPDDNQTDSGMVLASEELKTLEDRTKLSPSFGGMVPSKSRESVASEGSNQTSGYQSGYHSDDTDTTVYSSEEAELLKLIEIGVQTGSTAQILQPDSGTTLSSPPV

Row | IC50 | Compound
1 | > 10 µM | CC(C)(C)c1cc(NC(=O)Nc2ccc(-c3cc(N)no3)cc2)no1
2 | > 10 µM | Nc1cc(-c2ccc(NC(=O)Nc3cccc(C(F)(F)F)c3)cc2)on1
